# Measurements as given in PubChem BioAssay AID2060620 (Molecular Pharmacology Branch, DTP, NCI, 2025).
# Tested on: 328373-195-R-J1-PDC complex spheroids, viability % test/control
# Experiment: Anticancer human tumor 328373-195-R-J1-PDC patient-derived head and neck squamous carcinoma cell line growth inhibition [CLK]
# Conditions: for IC50: curve of first compound; for viability, T/C: stronger effect = lower value
# Description: A high-throughput screen of multi-cell type tumor spheroids was designed to identify active combinations of […] and targeted small molecules. Complex spheroids include a stromal component modeled by human endothelial cells (HUVEC) and fibroblasts modeled by human mesenchymal stem cells (MSCs). The concentration ranges selected for each drug and investigational agent were based upon clinically achievable concentrations if the clinical Cmax of the agent was known.
# Compounds. The drugs and investigational agents: cirtuvivint (SM08502; NSC835563), CC-671 (NSC850746), vemurafenib (NSC761431), tapotoclax (NSC804041), sotorasib (NSC818433), adagrasib (NSC831453), MRTX-1133 (NSC836407), BAY2416964 (NSC825713), copanlisib (NSC816437), inavolisib (NSC800729), abemaciclib (NSC768073), osimertinib (NSC779217), entinostat (NSC756642), eltanexor (KPT-8602, NSC794443), venetoclax (NSC766270), ceralasertib (NSC777638), bortezomib (NSC756655), olaparib (NSC753686), talazoparib (NSC767125), alisertib (NSC759677), peposertib (NSC802822), gemcitabine (NSC613327), 5-fluorouracil (NSC19893), SN-38 (NSC673596), oxaliplatin (NSC266046), paclitaxel (NSC125973), and doxorubicin (NSC123127), were obtained from the National Cancer Institute (NCI) Developmental Therapeutics Program Chemical Repository. The FDA-approved anticancer drug set is available from the Developmental Therapeutics Program at https://dtp.cancer.gov/organization/dscb/obtaining/available plates.htm. […] The stock solutions were prepared in dimethyl sulfoxide (DMSO, Sigma-Aldrich, St. Louis, MO, cat. D2650), except for the platinum complexes which were prepared in saline (Quality Biological, Gaithersburg, MD, cat. 114-055-101), at 800-fold the tested concentration and stored at -70 degrees C prior to their use. All drugs and investigational agents were tested over a range starting from a high concentration at or near the clinical Cmax and decreasing in half-log increments. If the clinical Cmax for an agent had not been determined, the highest concentration tested was 10 microM.
# Cell Culture. All cells were maintained in an incubator at 37 degrees C and 5% CO2 with 95% humidity. The PDC lines were cultured according to standard operating procedures established by the NCI PDMR. Briefly, all PDCs were thawed and cultured in Matrigel-coated flasks prepared with a working solution of 1X Ham's F-12 nutrient mix, without supplementation (Invitrogen, Waltham, MA, cat. 11765054), 100 U/mL penicillin-streptomycin (Invitrogen, cat. 15140122), and 2.5% Matrigel (Corning Inc., Corning, NY, cat. 354248) for the first three passages. The 947758-054-R-J2-PDC line was cultured in 6B/Colon 1A media, which includes advanced DMEM/F-12 (Thermo Fisher Scientific, cat. 12634028), 10 mM HEPES (Thermo Fisher Scientific, cat. 15630080), 1X GlutaMAX supplement (Thermo Fisher Scientific, cat. 35050061), 0.1 mg/mL primocin (InvivoGen, cat. ant-pm-2), 10% defined fetal bovine serum, heat inactivated (HyClone Laboratories Inc., cat. SH30070.03HI), 1.25 mM N-Acetyl-L-cysteine (Sigma-Aldrich, cat. A9165), 10 mM nicotinamide (Sigma-Aldrich, cat. N0636), 1X B-27 supplement (Thermo Fisher Scientific, cat. 17504044), 1X N-2 supplement (Thermo Fisher Scientific, cat. 17502048), and 10 microM Y-27632 dihydrochloride (Tocris Bioscience, cat. 1254). The 876862-298-R-J1-PDC was cultured in 6E media, which includes all 6B/Colon 1A media components plus 50% L-WRN conditioned media (ATCC, cat. CRL-3276), 50 ng/mL recombinant human EGF recombinant protein (hEGF; Thermo Fisher Scientific, cat. PHG0311), 10 ng/mL recombinant human fibroblast growth factor 10 (hGFG-10; PeproTech, cat. 100-26), 1 ng/mL recombinant human fibroblast growth factor 2 (hFGF-2; PeproTech, cat. 100-18B), and 1 µM prostaglandin E2 (PGE2; Tocris, cat. 2296). The 227483-062-R1-J1-PDC line was cultured in Panc media, containing all 6E components except hFGF-2, with the addition of 500 nM SB-431542 (Selleckchem, cat. S1067) and 10 nM gastrin (Tocris, cat. 3006). […]
# [1] = second compound 0.0316 µM, first compound 0.0316 µM
# [2] = second compound 0.0316 µM, first compound 0.1 µM
# [3] = second compound 0.0316 µM, first compound 0.316 µM
# [4] = second compound 0.0316 µM, first compound 1 µM
# [5] = second compound 0.0316 µM, first compound 3.16 µM
# [6] = second compound 0.0316 µM, first compound 10 µM
# [7] = second compound 0.1 µM, first compound 0.0316 µM
# [8] = second compound 0.1 µM, first compound 0.1 µM
# [9] = second compound 0.1 µM, first compound 0.316 µM
# [10] = second compound 0.1 µM, first compound 1 µM
# [11] = second compound 0.1 µM, first compound 3.16 µM
# [12] = second compound 0.1 µM, first compound 10 µM
# [13] = second compound 0.316 µM, first compound 0.0316 µM
# [14] = second compound 0.316 µM, first compound 0.1 µM
# [15] = second compound 0.316 µM, first compound 0.316 µM
# [16] = second compound 0.316 µM, first compound 1 µM
# [17] = second compound 0.316 µM, first compound 3.16 µM
# [18] = second compound 0.316 µM, first compound 10 µM
# [19] = second compound 1 µM, first compound 0.0316 µM
# [20] = second compound 1 µM, first compound 0.1 µM
# [21] = second compound 1 µM, first compound 0.316 µM
# [22] = second compound 1 µM, first compound 1 µM
# [23] = second compound 1 µM, first compound 3.16 µM
# [24] = second compound 1 µM, first compound 10 µM
# [25] = second compound 3.16 µM, first compound 0.0316 µM
# [26] = second compound 3.16 µM, first compound 0.1 µM
# [27] = second compound 3.16 µM, first compound 0.316 µM
# [28] = second compound 3.16 µM, first compound 1 µM
# [29] = second compound 3.16 µM, first compound 3.16 µM
# [30] = second compound 3.16 µM, first compound 10 µM
# [31] = second compound 10 µM, first compound 0.0316 µM
# [32] = second compound 10 µM, first compound 0.1 µM
# [33] = second compound 10 µM, first compound 0.316 µM
# [34] = second compound 10 µM, first compound 1 µM
# [35] = second compound 10 µM, first compound 3.16 µM
# [36] = second compound 10 µM, first compound 10 µM
# 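Also: spheroids exposed to the agents for 7 days.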
structure (smiles),measurement,setting,value
C=CC(=O)N1CCN(c2nc(=O)n(-c3c(C)ccnc3C(C)C)c3nc(-c4c(O)cccc4F)c(F)cc23)C(C)C1 (centres undefined) + CN1CCN(c2cc(C(=O)Nc3cc4cc(-c5cnn(C)c5)ccc4cn3)ccn2)CC1,IC50,second compound 0.0316 µM,> 10000 nM
same,IC50,second compound 0.1 µM,> 10000 nM
same,IC50,second compound 0.316 µM,< 31.6 nM
same,IC50,second compound 1 µM,< 31.6 nM
same,IC50,second compound 3.16 µM,< 31.6 nM
same,IC50,second compound 10 µM,< 31.6 nM
same,"viability, T/C",[1],93.6%
same,"viability, T/C",[2],90.1%
same,"viability, T/C",[3],99.3%
same,"viability, T/C",[4],99%
same,"viability, T/C",[5],94%
same,"viability, T/C",[6],77.7%
same,"viability, T/C",[7],80%
same,"viability, T/C",[8],82.7%
same,"viability, T/C",[9],89.3%
same,"viability, T/C",[10],86.6%
same,"viability, T/C",[11],83.5%
same,"viability, T/C",[12],62.9%
same,"viability, T/C",[13],37.6%
same,"viability, T/C",[14],37.7%
same,"viability, T/C",[15],41.1%
same,"viability, T/C",[16],43.2%
same,"viability, T/C",[17],36.2%
same,"viability, T/C",[18],16.5%
same,"viability, T/C",[19],0.2%
same,"viability, T/C",[20],2.35%
same,"viability, T/C",[21],0.89%
same,"viability, T/C",[22],0.26%
same,"viability, T/C",[23],1.99%
same,"viability, T/C",[24],1.88%
same,"viability, T/C",[25],1.99%
same,"viability, T/C",[26],4.29%
same,"viability, T/C",[27],3.33%
same,"viability, T/C",[28],0.14%
same,"viability, T/C",[29],1.88%
same,"viability, T/C",[30],0.7%
same,"viability, T/C",[31],1.21%
same,"viability, T/C",[32],1.7%
same,"viability, T/C",[33],1.33%
same,"viability, T/C",[34],0.55%
same,"viability, T/C",[35],3.67%
same,"viability, T/C",[36],1%
COC1C=CCC(C)C(C)S(=O)(=O)NC(=O)c2ccc3c(c2)N(CC2CCC21)CC1(CCCc2cc(Cl)ccc21)CO3 (centres undefined) + CN1CCN(c2cc(C(=O)Nc3cc4cc(-c5cnn(C)c5)ccc4cn3)ccn2)CC1,IC50,second compound 0.0316 µM,9330 nM
same,IC50,second compound 0.1 µM,7920 nM
same,IC50,second compound 0.316 µM,< 31.6 nM
same,IC50,second compound 1 µM,< 31.6 nM
same,IC50,second compound 3.16 µM,< 31.6 nM
same,IC50,second compound 10 µM,< 31.6 nM
same,"viability, T/C",[1],96.7%
same,"viability, T/C",[2],99.5%
same,"viability, T/C",[3],108%
same,"viability, T/C",[4],105%
same,"viability, T/C",[5],81.2%
same,"viability, T/C",[6],48%
same,"viability, T/C",[7],77.3%
same,"viability, T/C",[8],87%
same,"viability, T/C",[9],82.2%
same,"viability, T/C",[10],80.7%
same,"viability, T/C",[11],73.5%
same,"viability, T/C",[12],44%
same,"viability, T/C",[13],36%
same,"viability, T/C",[14],35.3%
same,"viability, T/C",[15],37%
same,"viability, T/C",[16],32.4%
same,"viability, T/C",[17],29.3%
same,"viability, T/C",[18],13.3%
same,"viability, T/C",[19],0.21%
same,"viability, T/C",[20],2.53%
same,"viability, T/C",[21],2.21%
same,"viability, T/C",[22],1.57%
same,"viability, T/C",[23],0.27%
same,"viability, T/C",[24],1.2%
same,"viability, T/C",[25],2.24%
same,"viability, T/C",[26],3.21%
same,"viability, T/C",[27],2.04%
same,"viability, T/C",[28],1.78%
same,"viability, T/C",[29],1.66%
same,"viability, T/C",[30],1.86%
same,"viability, T/C",[31],4.14%
same,"viability, T/C",[32],0.77%
same,"viability, T/C",[33],1.41%
same,"viability, T/C",[34],2.69%
same,"viability, T/C",[35],1.19%
same,"viability, T/C",[36],0.32%
